{"source": "patent US20040161426A1", "about": "“Use of IL-6 antagonists in combination with steroids to enhance apoptosis” (priority 2003, published 2004)", "key": {"[1]": {"system": "RPMI 8226 cells", "test": "Dexamethasone-induced apoptosis, Tunel assay with flow cytometry", "type": "cell-based, human", "conditions": "for % Apoptosis Mean ± SEM: 48 h; for level of apoptosis (cells undergoing apoptosis): representative experiment", "experimental": "The cell line RPMI 8226, a human multiple myeloma cell line, was purchased from ATCC (Rockville, Md.). Cells were grown and maintained according to ATCC instructions in complete RPMI medium containing 10% FBS, 1% NEAA, 1% L-glutamine and 1% sodium pyruvate.\nChimeric CLB8 (cCLB8) (Centocor, Malvern, Pa.) was used at three different concentrations in the assay. Another a chimeric human-mouse IgG, c171A, also developed at Centocor was used as a negative control antibody.\n[…] After the incubation, cells were harvested and the Tunel assay (Tdt-mediated dUTP-FITC nick end labeling) as disclosed in Gavrieli et al., “Identification of Programmed Cell Death in situ Via Specific Labelling of Nuclear DNA Fragmentation”, […] 119:493-501, 1992 was used to measure apoptosis with minor modifications. Briefly, after the 48-hour incubation described above, approximately 10^6 cells were harvested, washed twice, and fixed with 1% paraformaldehyde for 15 minutes. After washing, the cells were permeabilized with 0.1% Triton (Sigma, St. Louis, Mo.) for 5 minutes and washed twice. The labeling reaction was performed in a heating block at 37° C. for 1 hour with 0.3 nM FITC-12-dUTP (Boehringer Mannheim, Indianapolis, Ind.), 2.5 mM CoCI2, 12.5 U Tdt, and 5 microL of 5×Tdt Buffer (Boehringer Mannheim) in a total volume of 50 microL. Cells were analyzed by flow cytometry.\nAfter completing the Tunel assay, cells were washed twice and analyzed on a FACS Calibur flow cytometer (Becton Dickinson Immunocytometry Systems, San Jose, Calif.) equipped with a 15-mW air-cooled 488-nm argon laser. Gating to exclude debris was based upon diminished forward scatter (FSC) and side scatter (SSC). A minimum of 10,000 events was collected per sample and all analyses were performed with CELLQuest software (Becton Dickinson Immunocytometry Systems, San Jose, Calif.)."}, "[2]": {"biological_target": "T1, IL-6 (Homo sapiens, UniProt P05231)", "T1 construct": "host or cells: patients (endogenous IL-6)", "T1 sequence (P05231 30-212)": "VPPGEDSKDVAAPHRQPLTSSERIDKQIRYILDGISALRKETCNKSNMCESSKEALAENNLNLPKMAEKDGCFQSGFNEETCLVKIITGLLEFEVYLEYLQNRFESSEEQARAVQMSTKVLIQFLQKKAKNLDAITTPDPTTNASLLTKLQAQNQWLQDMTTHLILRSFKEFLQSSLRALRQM", "conditions": "multiple myeloma patients after cCLB8 administration; cited from earlier work"}}, "data": [{"molecule": "C[C@@H]1C[C@H]2[C@@H]3CCC4=CC(=O)C=C[C@]4(C)[C@@]3(F)[C@@H](O)C[C@]2(C)[C@@]1(O)C(=O)CO", "note": "[Dexamethasone, reference compound]", "values": [{"measurement": "% Apoptosis Mean ± SEM", "setting": "[1]; RPMI 8226 cells, DEX 10-6 alone", "value": "% 46 ± 4"}, {"measurement": "% Apoptosis Mean ± SEM", "setting": "[1]; RPMI 8226 cells, DEX + IL-6 100 pg", "value": "% 27 ± 9"}, {"measurement": "level of apoptosis (cells undergoing apoptosis)", "setting": "[1]; FIG. 1A, dexamethasone 1 microM, 48 hrs", "value": 45, "unit": "%"}, {"measurement": "level of apoptosis (cells undergoing apoptosis)", "setting": "[1]; FIG. 1B, dexamethasone in the presence of IL-6", "value": 20, "unit": "%"}]}, {"molecule": "IL-6: 22-27 kDa secreted glycoprotein cytokine interleukin 6 [reference compound]", "values": [{"measurement": "IL-6 concentration inhibiting dexamethasone-induced apoptosis", "setting": "[1]; RPMI 8226 cells, dexamethasone 1 microM", "value": "higher than 100 ng/mL"}]}, {"molecule": "cCLB8: chimerized form of the murine anti-IL-6 monoclonal antibody CLB-6/8 (Centocor)", "values": [{"measurement": "% Apoptosis Mean ± SEM", "setting": "[1]; RPMI 8226 cells, DEX + IL-6 + CNTO 328 100 ng", "value": "% 45 ± 11"}, {"measurement": "% Apoptosis Mean ± SEM", "setting": "[1]; RPMI 8226 cells, DEX + IL-6 + CNTO 328 1 ug", "value": "% 54 ± 2.5"}, {"measurement": "neutralization of the inhibitory effect of IL-6 on dexamethasone-induced apoptosis", "setting": "[1]; RPMI 8226 cells, P<0.02", "value": "neutralized the inhibitory effect of IL-6 on dexamethasone-induced apoptosis in a dose dependent manner"}, {"measurement": "promotion of cellular apoptosis, combination versus single agents", "setting": "[1]; combination of dexamethasone and cCLB8", "value": "superior to treatment with either agent alone"}, {"measurement": "level of apoptosis (cells undergoing apoptosis)", "setting": "[1]; FIG. 1C, dexamethasone in the presence of both IL-6 and cCLB8", "value": 60, "unit": "%"}, {"measurement": "circulating levels of sIL6R and sgp130", "setting": "[2]", "value": "remained unchanged"}, {"measurement": "serum IL-6 activity", "setting": "[2]", "value": "total blockage of serum IL-6 activity"}]}]}
